# Test results from patent US9169254B2, “Spiroimidazolone derivative” (Chugai Seiyaku Kabushiki Kaisha, priority 2009, dated 2015).
# Target: T1, human PTH1 receptor (Homo sapiens, UniProt Q03431)
# T1 sequence (Q03431 27-593): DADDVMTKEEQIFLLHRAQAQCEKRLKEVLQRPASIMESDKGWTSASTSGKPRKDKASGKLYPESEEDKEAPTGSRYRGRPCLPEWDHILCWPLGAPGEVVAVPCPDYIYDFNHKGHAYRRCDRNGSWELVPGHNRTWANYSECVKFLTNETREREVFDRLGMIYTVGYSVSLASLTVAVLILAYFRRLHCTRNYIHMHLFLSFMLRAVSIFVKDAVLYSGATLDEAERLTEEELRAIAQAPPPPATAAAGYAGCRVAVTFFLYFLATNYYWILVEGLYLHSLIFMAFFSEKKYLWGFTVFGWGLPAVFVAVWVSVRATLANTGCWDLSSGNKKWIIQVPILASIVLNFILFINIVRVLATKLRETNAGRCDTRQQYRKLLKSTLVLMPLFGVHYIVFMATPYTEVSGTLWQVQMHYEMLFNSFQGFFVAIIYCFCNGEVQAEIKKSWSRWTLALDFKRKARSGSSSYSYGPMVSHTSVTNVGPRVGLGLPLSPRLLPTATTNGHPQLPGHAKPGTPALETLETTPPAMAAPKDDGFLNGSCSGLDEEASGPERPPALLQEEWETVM
# Assay: In vitro cAMP signal activity in HKRK-B7 cells (LLC-PK1 cells overexpressing the human PTH1 receptor)
# Format: cell-based
# Conditions: 0.1 µM
row,SMILES,cAMP production activity (%)
1,"Cc1cc(C(=O)N(C)C)ccc1CCS(=O)(=O)N1CCC2(CC1)N=C(Nc1ccc(C(F)(F)F)cc1)NC2=O [Compound 1396, 3,N,N-Trimethyl-4-{2-[4-oxo-2-(4-trifluoromethyl-phenylamino)-1,3,8-triaza-spiro[4.5]dec-1-ene-8-sulfonyl]-ethyl}-benzamide]",133%

# Same assay, conditions: HKRK-B7 cells; compound at 1×10^−3 M; cAMP produced as percentage of that produced by hPTH(1-34) at 100 nM
row,SMILES,cAMP production activity (%)
1,"Cc1cc(C(N)=O)cc(C)c1/C=C/S(=O)(=O)N1CCC2(CC1)N=C(c1cccc(OC(F)(F)F)c1)NC2=O [Compound 962, 3,5-dimethyl-4-{(E)-2-[4-oxo-2-(3-trifluoromethoxy-phenyl)-1,3,8-triaza-spiro[4.5]dec-1-ene-8-sulfonyl]-vinyl}-benzamide]",86%
2,"CC(=O)N(c1ccc(CCS(=O)(=O)N2CCC3(CC2)N=C(c2cccc(OC(F)(F)F)c2)NC3=O)c(C)c1)C1CCCC1 [Compound 678, N-Cyclopentyl-N-(3-methyl-4-{2-[4-oxo-2-(3-trifluoromethoxy-phenyl)-1,3,8-triaza-spiro[4.5]dec-1-ene-8-sulfonyl]-ethyl}-phenyl)-acetamide]",86%
3,"Cc1cc(S(N)(=O)=O)ccc1/C=C/S(=O)(=O)N1CCC2(CC1)N=C(c1cccc(C(F)(F)F)c1)NC2=O [Compound 213, 3-methyl-4-{(E)-2-[4-oxo-2-(3-trifluoromethyl-phenyl)-1,3,8-triaza-spiro[4.5]dec-1-ene-8-sulfonyl]-vinyl}-benzenesulfonamide]",74%
4,"CC(=O)Nc1ccc(CCS(=O)(=O)N2CCC3(CC2)N=C([C@H]2CC[C@H](CCF)CC2)NC3=O)c(C)c1 [Compound 1061, N-[4-(2-{2-[4-(2-fluoro-ethyl)-cyclohexyl]-4-oxo-1,3,8-triaza-spiro[4.5]dec-1-ene-8-sulfonyl}-ethyl)-3-methyl-phenyl]-acetamide]",55%
5,"Cc1cc(C(=O)N2CCC(O)CC2)cc(C)c1/C=C/S(=O)(=O)N1CCC2(CC1)N=C(c1cccc(OCCCC(F)(F)C(F)(F)F)c1)NC2=O [Compound 1158, 8-{(E)-2-[4-(4-Hydroxy-piperidine-1-carbonyl)-2,6-dimethyl-phenyl]-ethenesulfonyl}-2-[3-(4,4,5,5,5-pentafluoro-pentyloxy)-phenyl]-1,3,8-triaza-spiro[4.5]dec-1-en-4-one]",103%
6,"Cc1cc(C(=O)N2CCC(O)(CF)CC2)cc(C)c1/C=C/S(=O)(=O)N1CCC2(CC1)N=C(c1ccc(OCCCC(F)(F)F)c(C(F)(F)F)c1)NC2=O [Compound 1250, 8-{(E)-2-[4-(4-fluoromethyl-4-hydroxy-piperidine-1-carbonyl)-2,6-dimethyl-phenyl]-ethenesulfonyl}-2-[4-(4,4,4-trifluoro-butoxy)-3-trifluoromethyl-phenyl]-1,3,8-triaza-spiro[4.5]dec-1-en-4-one]",67%
7,"Cc1cc(N2C(=O)CC[C@@H]2CN(C)C)cc(C)c1/C=C/S(=O)(=O)N1CCC2(CC1)N=C(c1cccc(OC(F)(F)F)c1)NC2=O [Compound 611, 8-{(E)-2-[4-((R)-2-dimethylaminomethyl-5-oxo-pyrrolidin-1-yl)-2,6-dimethyl-phenyl]-ethenesulfonyl}-2-(3-trifluoromethoxy-phenyl)-1,3,8-triaza-spiro[4.5]dec-1-en-4-one]",82%
8,"O=C1NC(C2CCCCC2)=NC12CCN(S(=O)(=O)CCc1cccc3c1ccn3C[C@H](O)[C@@H](O)COCc1ccccc1)CC2 [Compound 1393, 8-{2-[1-((2S,3S)-4-benzyloxy-2,3-dihydroxy-butyl)-1H-indol-4-yl]-ethanesulfonyl}-2-cyclohexyl-1,3,8-triaza-spiro[4.5]dec-1-en-4-one]",84%
9,"Cc1cc(OCCC(O)CO)ccc1/C=C/S(=O)(=O)N1CCC2(CC1)N=C(c1ccc(F)c(OC(F)(F)F)c1)NC2=O (stereo not drawn) [Compound 1166, 8-{(E)-2-[4-(3,4-Dihydroxy-butoxy)-2-methyl-phenyl]-ethenesulfonyl}-2-(4-fluoro-3-trifluoromethoxy-phenyl)-1,3,8-triaza-spiro[4.5]dec-1-en-4-one]",144%
10,"Cc1c(/C=C/S(=O)(=O)N2CCC3(CC2)N=C(c2cccc(OC(F)(F)F)c2)NC3=O)cccc1OCCC(O)CO (stereo not drawn) [Compound 254, 8-{(E)-2-[3-(3,4-Dihydroxy-butoxy)-2-methyl-phenyl]-ethenesulfonyl}-2-(3-trifluoromethoxy-phenyl)-1,3,8-triaza-spiro[4.5]dec-1-en-4-one]",97%
11,"CC(=O)N(C)c1c(C)cc(/C=C/S(=O)(=O)N2CCC3(CC2)N=C(C2CCC(C)CC2)NC3=O)cc1C (stereo not drawn) [Compound 584, N-(2,6-dimethyl-4-{(E)-2-[2-(4-methyl-cyclohexyl)-4-oxo-1,3,8-triaza-spiro[4.5]dec-1-ene-8-sulfonyl]-vinyl}-phenyl)-N-methyl-acetamide]",24%

# Now from value to compound:
row,cAMP production activity (%),SMILES
1,82%,"Cc1cc(N(C)C(N)=O)cc(C)c1CCS(=O)(=O)N1CCC2(CC1)N=C(CCCCCCCCCCCCCC(N)=O)NC2=O [Compound 1176, 14-(8-{2-[2,6-dimethyl-4-(1-methyl-ureido)-phenyl]-ethanesulfonyl}-4-oxo-1,3,8-triaza-spiro[4.5]dec-1-en-2-yl)-tetradecanoic acid amide]"
2,103%,"Cc1cc(N(C)C(N)=O)cc(C)c1CCS(=O)(=O)N1CCC2(CC1)N=C(CCCCCCCCCCCN)NC2=O [Compound 1366, 1-(4-{2-[2-(11-Amino-undecyl)-4-oxo-1,3,8-triaza-spiro[4.5]dec-1-ene-8-sulfonyl]-ethyl}-3,5-dimethyl-phenyl)-1-methyl-urea]"
3,70%,"CC[C@H]1CC[C@H](C2=NC3(CCN(S(=O)(=O)CCc4ccc(N5C(=O)NC(=O)C5C)cc4C)CC3)C(=O)N2)CC1 (stereo partly drawn) [Compound 879, 1-(4-{2-[2-(4-ethyl-cyclohexyl)-4-oxo-1,3,8-triaza-spiro[4.5]dec-1-ene-8-sulfonyl]-ethyl}-3-methyl-phenyl)-5-methyl-imidazolidine-2,4-dione]"
4,92%,"Cc1cc(N(C)C(N)=O)cc(C)c1CCS(=O)(=O)N1CCC2(CC1)N=C(CCCCCCCCCF)NC2=O [Compound 1327, 1-(4-{2-[2-(9-Fluoro-nonyl)-4-oxo-1,3,8-triaza-spiro[4.5]dec-1-ene-8-sulfonyl]-ethyl}-3,5-dimethyl-phenyl)-1-methyl-urea]"
5,62%,"Cc1cc(N(C)C(N)=O)cc(C)c1CCS(=O)(=O)N1CCC2(CC1)N=C(C(C1CC1)C1CC1)NC2=O [Compound 1052, 1-{4-[2-(2-dicyclopropylmethyl-4-oxo-1,3,8-triaza-spiro[4.5]dec-1-ene-8-sulfonyl)-ethyl]-3,5-dimethyl-phenyl}-1-methyl-urea]"
6,64%,"CNc1cc(C)c(CCS(=O)(=O)N2CCC3(CC2)N=C(C(C)(F)F)NC3=O)c(C)c1.Cl [Compound 1287, 2-(1,1-difluoro-ethyl)-8-[2-(2,6-dimethyl-4-methylamino-phenyl)-ethanesulfonyl]-1,3,8-triaza-spiro[4.5]dec-1-en-4-one hydrochloride]"
7,30%,"Cc1cc(N(C)c2c(N(C)C)c(=O)c2=O)cc(C)c1CCS(=O)(=O)N1CCC2(CC1)N=C([C@H]1CC[C@H](C)CC1)NC2=O [Compound 1369, 3-Dimethylamino-4-[(3,5-dimethyl-4-{2-[2-(4-methyl-cyclohexyl)-4-oxo-1,3,8-triaza-spiro[4.5]dec-1-ene-8-sulfonyl]-ethyl}-phenyl)-methyl-amino]-cyclobut-3-ene-1,2-dione]"
8,73%,"CON(C)C(=O)c1cc(C)c(CCS(=O)(=O)N2CCC3(CC2)N=C(C2CCC(C)CC2)NC3=O)c(C)c1 (stereo not drawn) [Compound 1180, N-methoxy-3,5,N-trimethyl-4-{2-[2-(4-methyl-cyclohexyl)-4-oxo-1,3,8-triaza-spiro[4.5]dec-1-ene-8-sulfonyl]-ethyl}-benzamide]"
9,88%,"C=CCCCCC(=O)N(C)c1cc(C)c(CCS(=O)(=O)N2CCC3(CC2)N=C(CCCCC=C)NC3=O)c(C)c1 [Compound 1446, Hept-6-enoic acid {4-[2-(2-hex-5-enyl-4-oxo-1,3,8-triaza-spiro[4.5]dec-1-ene-8-sulfonyl)-ethyl]-3,5-dimethyl-phenyl}-methyl-amide]"
10,78%,"Cc1cc(C(=O)N2CCC(OC[C@H](O)CO)CC2)cc(C)c1CCS(=O)(=O)N1CCC2(CC1)N=C(C1CCC(CCC(F)(F)F)CC1)NC2=O (stereo partly drawn) [Compound 1384, 8-(2-{4-[4-((R)-2,3-dihydroxy-propoxy)-piperidine-1-carbonyl]-2,6-dimethyl-phenyl}-ethanesulfonyl)-2-[4-(3,3,3-trifluoro-propyl)-cyclohexyl]-1,3,8-triaza-spiro[4.5]dec-1-en-4-one]"
11,91%,"CCCCCCCCCC1=NC2(CCN(S(=O)(=O)CCc3ccc(C(=O)N4CCC4)cc3C)CC2)C(=O)N1 [Compound 978, 8-{2-[4-(azetidine-1-carbonyl)-2-methyl-phenyl]-ethanesulfonyl}-2-nonyl-1,3,8-triaza-spiro[4.5]dec-1-en-4-one]"
12,96%,"CCCCCCCCCC1=NC2(CCN(S(=O)(=O)CCc3c(C)cc(C(=O)N4CCN(C)CC4)cc3C)CC2)C(=O)N1 [Compound 986, 8-{2-[2,6-dimethyl-4-(4-methyl-piperazine-1-carbonyl)-phenyl]-ethanesulfonyl}-2-nonyl-1,3,8-triaza-spiro[4.5]dec-1-en-4-one]"
